Calls of active or inactive are those of the source. The rule behind the calls is not given here.
Target: Serine/threonine-protein kinase mTOR (Homo sapiens) (UniProt P42345)
Assay: mTOR FRB domain ligand binding – biophysical, NMR (AID 1648)
Conditions: NMR binding to FRB domain, chemical shift

Chain of Serine/threonine-protein kinase mTOR (Homo sapiens) (P42345 2015-2114): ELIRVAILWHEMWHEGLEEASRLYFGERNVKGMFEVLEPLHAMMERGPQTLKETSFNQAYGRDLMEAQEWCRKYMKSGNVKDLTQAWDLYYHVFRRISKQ

Row | SMILES | Kd
1 | COC(=O)N(c1ccccc1)P1(=S)OCCO1 | > 4 mM (inactive)
2 | O=C(O)C1(O)C[C@@H](O)C(O)[C@H](O)C1 (some centres undefined) | > 4 mM (inactive)
3 | COc1ccc(C)cc1S(=O)(=O)Nc1ccccc1C | > 4 mM (inactive)
4 | OCc1snnc1-c1ccccc1 | > 4 mM (inactive)
5 | CC(=O)c1ccc(-n2ccnc2)cc1 | > 4 mM (inactive)
6 | O=C(O)c1cnn2ccccc12 | > 4 mM (inactive)
7 | O=CN1CCN(C(=O)c2ccccc2Cl)CC1 | > 4 mM (inactive)
8 | CCc1noc(C)c1C(=O)N1CCOCC1 | > 4 mM (inactive)
9 | O=C1C2C3C=CC(C3)C2C(=O)N1c1nccs1 (centres undefined) | > 4 mM (inactive)
10 | CNC(=O)c1ccccc1N | > 4 mM (inactive)
11 | OC1CCN(C(=S)NC2CC2)CC1 | > 4 mM (inactive)
12 | O=C(c1cc(-c2ccccc2)on1)N1CCCC1 | > 4 mM (inactive)
13 | NC1=NC(=O)C(Cc2ccccc2)S1 (centres undefined) | > 4 mM (inactive)
14 | NC(=O)CSc1nc2[nH]ncc2c(=O)[nH]1 | > 4 mM (inactive)
15 | O=C(O)C1(S(=O)(=O)c2ccccc2)CC1 | > 4 mM (inactive)
16 | Cc1[nH]c2ccccc2c(=O)c1CO | > 4 mM (inactive)
17 | NC(=O)CSCc1ccc(Br)cc1 | > 4 mM (inactive)
18 | COc1cccc(C(=O)Nc2c(C)n[nH]c2C)c1 | > 4 mM (inactive)
19 | COc1ccc(CN2CCC(O)CC2)c(O)c1 | > 4 mM (inactive)
20 | O=C(Nc1cccnc1)c1ccc(Br)s1 | > 4 mM (inactive)
21 | CC(=O)N1CC2(C)CN(C(C)=O)CC(C)(C1)C2O (centres undefined) | > 4 mM (inactive)
22 | NC(=O)NC1NC(=O)NC1=O (centres undefined) | > 4 mM (inactive)
23 | O=C(/C=C/c1ccccc1)c1ccc(O)cc1 | > 4 mM (inactive)
24 | CN(C)N1C(=O)c2ccccc2C1=O | > 4 mM (inactive)

Row | SMILES | Kd
25 | Cn1nnc2cc(CN)ccc21 | > 4 mM (inactive)
26 | CCC(C)C(=O)O[C@@H]1C[C@@]2(C)[C@H](c3ccoc3)OC(=O)CC23OC2(C)OC34[C@H](OC(=O)C(C)C)[C@@]3(O)[C@@H](OC(=O)C5(C)OC5C)[C@@]5(C)C[C@]3(O)[C@@](C)([C@H]5CC(=O)OC)C14O2 (some centres undefined) | > 4 mM (inactive)
27 | CC12CN(CC#N)CC(C)(CN(CC#N)C1)C2=O | > 4 mM (inactive)
28 | O=C(CC1NC(=O)NC1=O)Nc1ccccc1 (centres undefined) | > 4 mM (inactive)
29 | Cc1cc(=O)n2ncn(Cc3ccccc3)c2n1 | > 4 mM (inactive)
30 | CN(C)C(=O)CSc1cccc2cccnc12 | > 4 mM (inactive)
31 | FC(F)(F)c1cc(-c2ccco2)nc(N2CCOCC2)n1 | > 4 mM (inactive)
32 | Cc1oc(-c2ccccc2)cc1C(N)=O | > 4 mM (inactive)
33 | O=C(O)c1cc(F)cc2c1OCOC2 | > 4 mM (inactive)
34 | Cc1nn(CC(=O)N2CCCCC2)c(=O)c2ccccc12 | > 4 mM (inactive)
35 | NC(=O)c1cc2c(n(-c3ccccc3)c1=O)CCCC2=O | > 4 mM (inactive)
36 | CN1C(=O)c2ccc(N=C3NC(=O)CS3)cc2C1=O | > 4 mM (inactive)
37 | C=CCn1c(=S)[nH]c2ccc(Br)cc2c1=O | > 4 mM (inactive)
38 | CCOC12NC(=O)CC(=O)N1C(c1ccccc1)=CS2 (centres undefined) | > 4 mM (inactive)
39 | C=C(C)[C@@H]1CC[C@]2(CO)CC[C@]3(C)[C@H](CCC4[C@@]5(C)CC[C@H](O)C(C)(C)C5CC[C@]43C)C12 (some centres undefined) | > 4 mM (inactive)
40 | COc1ccc(C2CC(=O)NN2)cc1OC1CCCC1 (centres undefined) | > 4 mM (inactive)
41 | O=S(=O)(NCc1ccco1)c1cccc2cccnc12 | > 4 mM (inactive)
42 | Cc1sc2nc(SC3CCOC3=O)[nH]c(=O)c2c1C (centres undefined) | > 4 mM (inactive)
43 | O=C(c1ccco1)N1CCNCC1 | > 4 mM (inactive)
44 | O=C(O)c1ccc2c(c1)OCCCO2 | > 4 mM (inactive)
45 | NCC1COc2ccccc2O1 (centres undefined) | > 4 mM (inactive)
46 | NC(=O)C1CCN(c2ncnc(N)c2[N+](=O)[O-])CC1 | > 4 mM (inactive)
47 | CC(=O)N1CCc2ccccc2C1CC(=O)O (centres undefined) | > 4 mM (inactive)
48 | CN1CCn2c1nc(N1CCCCC1)nc2=O | > 4 mM (inactive)

Row | SMILES | Kd
49 | Cc1ccc(C(=O)N2CCC(C(N)=O)CC2)cc1C | > 4 mM (inactive)
50 | Cc1csc2nc(=O)c3ccccc3n12 | > 4 mM (inactive)
51 | O=C(NCc1ccc2c(c1)OCO2)c1cccs1 | > 4 mM (inactive)
52 | OCC1COc2ccccc2C1 (centres undefined) | > 4 mM (inactive)
53 | CN1CCC(NC(=O)C2CCCO2)CC1 (centres undefined) | > 4 mM (inactive)
54 | O=C(Nc1cccc(Cl)c1)c1cnn2cccnc12 | > 4 mM (inactive)
55 | COc1ccc(NC(=O)CCCC(=O)O)c(OC)c1 | > 4 mM (inactive)
56 | Nc1cccc(OC(F)(F)F)c1 | > 4 mM (inactive)
57 | COc1ccc(C(=O)NCC(=O)O)cc1 | > 4 mM (inactive)
58 | Cc1ccc(S(=O)(=O)/N=C2\NC(=O)CS2)cc1 | > 4 mM (inactive)
59 | O=C(NC12CC3CC(CC(C3)C1)C2)c1cnccn1 | > 4 mM (inactive)
60 | Cc1cc(C)n(C/C=C/Cn2nc(C)cc2C)n1 | > 4 mM (inactive)
61 | O=C(CSc1ccnc(=O)[nH]1)NCc1ccco1 | > 4 mM (inactive)
62 | COc1ccc(-c2oc3cc(O[C@H]4O[C@H](CO)[C@@H](O)[C@H](O)[C@H]4O)c(OC)c(O)c3c(=O)c2OC)cc1O | > 4 mM (inactive)
63 | O=C(NC1=NCCS1)c1ccc([N+](=O)[O-])cc1Cl | > 4 mM (inactive)
64 | C[C@@H]1O[C@@H](O[C@H]2[C@H](Oc3cc(O)c4c(=O)cc(-c5ccc(O)cc5)oc4c3)O[C@H](CO)[C@@H](O)[C@@H]2O)[C@H](O)[C@H](O)[C@H]1O | > 4 mM (inactive)
65 | CC(O)c1nc2ccccc2[nH]1 (centres undefined) | > 4 mM (inactive)
66 | COc1cc(OC)c2c(=O)c(OC)c(-c3ccc(OC)c(OC)c3)oc2c1 | > 4 mM (inactive)
67 | Cc1nc(SCC(=O)c2c[nH]c3ccccc23)n[nH]1 | > 4 mM (inactive)
68 | COc1cc(-c2coc3cc(O[C@@H]4O[C@H](CO)[C@@H](O)[C@H](O)[C@H]4O)c(OC)c(O)c3c2=O)cc(O)c1OC | > 4 mM (inactive)
69 | Cc1c(C(=O)O)cnn1-c1ccccc1 | > 4 mM (inactive)
70 | CC(=O)c1ccc(Cc2cnc(N)s2)cc1 | > 4 mM (inactive)
71 | O=C(CS(=O)(=O)c1ccccc1)N1CCCCCC1 | > 4 mM (inactive)
72 | O=[n+]1c(CO)c(CO)n([O-])c2ccccc21 | > 4 mM (inactive)

Row | SMILES | Kd
73 | Cc1nnsc1C(=O)Nc1ccc(C(N)=O)cc1 | > 4 mM (inactive)
74 | CN1CCN(C(=O)C2CCCNC2)CC1 (centres undefined) | > 4 mM (inactive)
75 | [O-][n+]1c2ccccc2[n+]([O-])c2cc(O)ccc21 | > 4 mM (inactive)
76 | O=c1nc(N2CCCCC2)nc2n1CCO2 | > 4 mM (inactive)
77 | O=c1nc(C(F)(F)F)nc2ccccn12 | > 4 mM (inactive)
78 | CC1CN(C2=NCCN2)CC(C)O1 (centres undefined) | > 4 mM (inactive)
79 | O=C(Nn1cnnc1)c1ccccc1Cl | > 4 mM (inactive)
80 | OC[C@H]1O[C@@H](Oc2ccc(O)cc2)[C@H](O)[C@@H](O)[C@@H]1O | > 4 mM (inactive)
81 | O=C(O)CNc1ncnc2nc[nH]c12 | > 4 mM (inactive)
82 | COc1cccc(NC(=O)c2ocnc2C)c1 | > 4 mM (inactive)
83 | OCc1nccn1Cc1ccccc1 | > 4 mM (inactive)
84 | CN1CCC(NC(=O)c2c(F)cccc2Cl)CC1 | > 4 mM (inactive)
85 | CC(C)=CCc1c(O)cc2oc(C)cc(=O)c2c1O | > 4 mM (inactive)
86 | CC1(C)CC2C1CCC1(C)OC2(C)CCC1O (centres undefined) | > 4 mM (inactive)
87 | c1ccc(-n2nnnc2Oc2cccc3cccnc23)cc1 | > 4 mM (inactive)
88 | CC(=O)Nc1nc(C)c(C(C)=O)s1 | > 4 mM (inactive)
89 | CSc1ccc(/C=c2\sc3ncnn3c2=O)cc1 | > 4 mM (inactive)
90 | NS(=O)(=O)c1ccc(NC(=O)C(F)(F)F)cc1 | > 4 mM (inactive)
91 | COc1ccc2c(c1OC)C(=O)N(c1ncn[nH]1)C2 | > 4 mM (inactive)
92 | NS(=O)(=O)c1ccc2c3c(cccc13)C(=O)N2 | > 4 mM (inactive)
93 | C(=N\c1ncn[nH]1)/c1cccs1 | > 4 mM (inactive)
94 | COC(=O)Cn1c2ccccc2c2nc(C)sc21 | > 4 mM (inactive)
95 | Cc1nc2c(n1O)CCc1c-2no[n+]1[O-] | > 4 mM (inactive)
96 | C[C@H]1CCCC(=O)CCC/C=C/c2cc(O)cc(O)c2C(=O)O1 | > 4 mM (inactive)

Row | SMILES | Kd
97 | O=C(O)CNCC(O)Cn1c2ccccc2c2ccccc21 (centres undefined) | > 4 mM (inactive)
98 | CN(C)c1nc(N2CCOCC2)c2cnn(C)c2n1 | > 4 mM (inactive)
99 | O=C(Nc1nccs1)c1ccc(=O)[nH]n1 | > 4 mM (inactive)
100 | COc1cc(-c2coc3cc(OC)c(OC)c(OC)c3c2=O)cc(OC)c1OC | > 4 mM (inactive)
101 | NC(=O)c1c[nH]c2ccccc12 | > 4 mM (inactive)
102 | COc1ccccc1N1C(=N)SCC1=O | > 4 mM (inactive)
103 | Cc1ccccc1NC(=O)c1ocnc1C | > 4 mM (inactive)
104 | O=C(O)c1csc(-c2cccs2)n1 | > 4 mM (inactive)
105 | Nc1nc2c3ccccc3nc(Cc3ccccc3)n2n1 | > 4 mM (inactive)
106 | O=C(O)Cn1c(=O)sc2ccccc21 | > 4 mM (inactive)
107 | NC(=O)C1CCN(Cc2ccccc2)CC1 | > 4 mM (inactive)
108 | Nc1ccc(-n2cccc2)cc1 | > 4 mM (inactive)
109 | Cc1nc(SCC#N)c2c(C)c(C)sc2n1 | > 4 mM (inactive)
110 | Cc1nnc(NC(=O)C(C)Sc2nncn2C)s1 (centres undefined) | > 4 mM (inactive)
111 | OCc1cc(-c2cccs2)on1 | > 4 mM (inactive)
112 | O=C1CSC(=Nc2cccc(C(=O)O)c2)N1 | > 4 mM (inactive)
113 | COc1ccc(S(=O)(=O)N2CCOCC2)cc1C(C)C | > 4 mM (inactive)
114 | Cc1cc(=O)[nH]c2ccccc12 | > 4 mM (inactive)
115 | N#Cc1cccc(Cn2nnc(-c3ccccc3)n2)c1 | > 4 mM (inactive)
116 | NC(=O)c1cccc2c1OCCO2 | > 4 mM (inactive)
117 | C[C@@H]1CC[C@@]23CCC4(C)[C@@](C=CC5[C@@]6(C)CC[C@H](O)C(C)(C)C6CC[C@]54C)(OC2=O)C3[C@H]1C (some centres undefined) | > 4 mM (inactive)
118 | CC(=O)CC(=O)N1C(O)CC[N+]1(C)C (centres undefined) | > 4 mM (inactive)
119 | O=C1c2ccncc2C(=O)N1CO | > 4 mM (inactive)

Reference: PubChem BioAssay AID1648 (Sanford-Burnham Center for Chemical Genomics, 2009)
